Assay results from patent US9023789B2, “Amylin analogs and pharmaceutical compositions thereof” (Novo Nordisk A/S, priority 2012, dated 2015).
Numbered stars: 1 amine (or outer) side, 2 acyl side, 3 side chain; on linkers, the order of the positions; unused ones are H or OH. Bridge positions count the residues as written; N and C are the ends. Side chains are listed from the residue outwards. Peptide text beside a SMILES is read from it. * marks the point of attachment. C20 diacid = O=C(O)CCCCCCCCCCCCCCCCCCC(=O)*; γGlu = O=C(O)[C@H](CCC(=O)[*:2])N[*:1]

Experiments:
[1] = target: T1, human amylin 3(a) receptor (human calcitonin receptor + RAMP-3) in BHK570 cells (Homo sapiens, UniProt O60896+P30988); assay: ASSAY (II)a functional assay, human amylin receptor (CRE luciferase); assay type: cell-based
T1 construct: expressed in transfected cells
Procedure, shortened: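 Cells were seeded and cultured overnight, then incubated with standard or sample for 3 h at 37° C in serum-containing medium at pH 7.4. The medium was then swapped for PBS, LucLite was added for 30 min at room temperature, and luminescence was recorded. Cells were BHK with CRE-luc and calcitonin receptor, ± RAMP-3.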

[2] = target: T2, human calcitonin (a) receptor in BHK570 cells (Homo sapiens, UniProt P30988); assay: ASSAY (II)a functional assay, human calcitonin receptor (CRE luciferase); assay type: cell-based; conditions: read-out: hCTR funct. EC50
T2 construct: expressed in transfected cells
T2 sequence (P30988 25-474): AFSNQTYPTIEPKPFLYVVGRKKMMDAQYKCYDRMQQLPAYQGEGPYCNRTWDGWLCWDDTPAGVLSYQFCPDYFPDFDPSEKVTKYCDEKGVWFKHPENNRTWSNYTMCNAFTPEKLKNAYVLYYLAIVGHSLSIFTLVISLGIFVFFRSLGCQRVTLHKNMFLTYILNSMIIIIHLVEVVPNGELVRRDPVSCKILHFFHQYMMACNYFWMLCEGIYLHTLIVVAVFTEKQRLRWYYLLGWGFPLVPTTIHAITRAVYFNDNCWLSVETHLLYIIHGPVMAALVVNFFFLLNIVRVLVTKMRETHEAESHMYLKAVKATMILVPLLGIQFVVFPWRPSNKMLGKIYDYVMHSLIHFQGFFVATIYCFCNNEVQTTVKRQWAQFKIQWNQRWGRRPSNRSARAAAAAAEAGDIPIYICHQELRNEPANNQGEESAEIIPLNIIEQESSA
Excerpt: 1. Luciferase Assay Outline
Activation of calcitonin and amylin (coexpression of calcitonin receptor and receptor activity modifying proteins (RAMP)) receptors lead to increased intracellular concentrations of cAMP. Consequently, transcription is activated by promoters containing multiple copies of the cAMP response element (CRE). It is thus possible to measure amylin activity by the use of a CRE luciferase reporter gene introduced into BHK cells also expressing calcitonin or amylin receptors.
2. Construction of Calcitonin (a)- and Amylin 3(a)-Receptor/CRE-Luc Cell Line.
The cell line was further transfected with RAMP-3, using standard methods. This turns the calcitonin receptor into an amylin 3(a) receptor. Methotrexate, Neomycin, and Hygromycin are selection markers for luciferase, the calcitonin receptor, and RAMP-3, respectively.
To perform activity assays, BHK calcitonin (a) receptor- or amylin 3(a)-receptor/CRE-luc cells were seeded in white 96 well culture plates at a density of about 20.000 cells/well. […] After incubation overnight at 37° C. and 5% CO2, the growth medium was replaced by 50 μl/well assay medium (DMEM (without phenol red), Glutamax™, 10% FBS, and 10 mM Hepes, pH 7.4). Further, 50 μl/well of standard or sample in assay buffer were added. After 3 hours incubation at 37° C. and 5% CO2, the assay medium with standard or sample were removed and replaced by 100 μl/well PBS. Further, 100 μl/well LucLite™ was added. The plates were sealed and incubated at room temperature for 30 minutes. Finally, luminescence was measured on a TopCounter (Packard) in SPC (single photon counting) mode.

[3] = ASSAY (III) ThT fibrillation assay for physical stability; assay type: physicochemical
Excerpt: Assay (III)—ThT Fibrillation Assays for the Assessment of Physical Stability of Protein Formulations Low physical stability of a polypeptide may lead to amyloid fibril formation, which is observed as well-ordered, thread-like macromolecular structures in the sample eventually resulting in gel formation. This has traditionally been measured by visual inspection of the sample. However, that kind of measurement is very subjective and depending on the observer. Therefore, the application of a small molecule indicator probe is much more advantageous. Thioflavin T (ThT) is such a probe and has a distinct fluorescence signature when binding to fibrils [Naiki et al. (1989) Anal. […] LeVine (1999) Methods. Enzymol. […], 274-284]. The time course for fibril formation can be described by a sigmoidal curve with the following expression [Nielsen et al. (2001) Biochemistry 40, 6036-6046]; […] Here, F is the ThT fluorescence at the time t. The constant t0 is the time needed to reach 50% of maximum fluorescence. […] Few of those intermediates nucleate to form a template onto which further intermediates may assembly and the fibrillation proceeds. The lag-time corresponds to the interval in which the critical mass of nucleus is built up and the apparent rate constant is the rate with which the fibril itself is formed. Sample Preparation Samples were prepared freshly before each assay. Each sample composition is described in each example. The pH of the sample was adjusted to the desired value using appropriate amounts of concentrated NaOH and HClO4 or HCl. Thioflavin T was added to the samples from a stock solution in H2O to a final concentration of 1 μM. Sample aliquots of 200 μl were placed in a 96 well microtiter plate (Packard OptiPlate™96, white polystyrene). Usually, four or eight replica of each sample (corresponding to one test condition) were placed in one column of wells. The plate was sealed with Scotch Pad (Qiagen). Incubation and Fluorescence Measurement Incubation at given temperature, shaking and measurement of the ThT fluorescence emission were done in a Fluoroskan Ascent FL fluorescence platereader or Varioskan platereader (Thermo Labsystems). The temperature was adjusted to 37° C. The orbital shaking was adjusted to 960 rpm with an amplitude of 1 mm in all the presented data. Fluorescence measurement was done using excitation through a 444 nm filter and measurement of emission through a 485 nm filter. Each run was initiated by incubating the plate at the assay temperature for 10 min. The plate was measured every 20 minutes for a desired period of time. Between each measurement, the plate was shaken and heated as described. Data Handling The measurement points were saved in Microsoft Excel format for further processing and curve drawing and fitting was performed using GraphPad Prism. The background emission from ThT in the absence of fibrils was negligible. The data points are typically a mean of four or eight samples and shown with standard deviation error bars. Only data obtained in the same experiment (i.e. samples on the same plate) are presented in the same graph ensuring a relative measure of fibrillation between experiments. The data set may be fitted to Eq. […] However, since full sigmodial curves in this case are not always achieved during the measurement time, the degree of fibrillation is expressed as ThT fluorescence tabulated as the mean of the samples and shown with the standard deviation at various time points. Measurement of Initial and Final Concentrations The polypeptide concentration in each of the tested formulations were measured both before application in the ThT fibrillation assay (“Initial”) and after completion of the ThT fibrillation (“After ThT assay”). Concentrations were determined by reverse HPLC methods using a pramlintide standard as a reference. Before measurement after completion 150 μl was collected from each of the replica and transferred to an Eppendorf tube. These were centrifuged at 30000 G for 40 mins. […]

[4] = target: T3, human amylin receptor (membranes from Amylin 3(a)/CRE-luc cells) (Homo sapiens, UniProt O60896+P30988); assay: ASSAY (V) binding to the human amylin receptor (SPA, 125I-rat amylin);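 also: competition binding of cell membranes (35 ng/µL) mixed with SPA beads in 384-well plates at 40 µL total volume, read by scintillation counting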
T3 construct: expressed in transfected cells
T3 sequence (P30988 25-474): T2 sequence (P30988 25-474)
T3 sequence (O60896 24-148 partner): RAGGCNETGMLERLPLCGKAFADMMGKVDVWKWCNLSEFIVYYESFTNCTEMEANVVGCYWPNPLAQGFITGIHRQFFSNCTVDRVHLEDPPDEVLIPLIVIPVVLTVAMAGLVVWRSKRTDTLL

[5] = target: T4, human calcitonin receptor (Homo sapiens, UniProt P30988); assay: ASSAY (VII) binding to the human calcitonin receptor (SPA, 125I-Calcitonin); conditions: read-out: hCTR bind IC50;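 also: cell membranes (35 ng/µL) combined with SPA beads in 40 µL of pH 7.4 Hepes buffer, 384-well format, signal counted on a TopCounter instrument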
T4 construct: expressed in transfected cells
T4 sequence (P30988 25-474): T2 sequence (P30988 25-474)

Ratio hCT/hAmylin funct. ([1]; hCTR funct. EC50 / hAmylin-R funct. EC50): 2.2
Ratio hCT/hAmylin funct. ([1]; hCTR funct. EC50 divided by hAmylin-R funct. EC50): 2.2
Ratio hCT/hAmylin funct. ([1]; hCTR funct. EC50 over hAmylin-R funct. EC50): 2.2
EC50 ([1]; human amylin receptor functional potency, assay (II), read-out: hAmylin-R funct. EC50): 213 pM
Ratio hCT/hAmylin funct. ([1]; human functional selectivity: hCTR funct. EC50 / hAmylin-R funct. EC50): 2.2
EC50 [2]: 470 pM
ThT pH 4.0 lag time (h) [3]: 45 h
IC50 ([4]; Table 4, read-out: hAmylin-R bind IC50): 264 pM
Ratio hCT/hAmylin binding ([4]; Table 5, selectivity, hCTR bind IC50 / hAmylin-R bind IC50): 1.2
Ratio hCT/hAmylin binding ([4]; Table 7, human binding selectivity, included for comparison): 1.2
IC50 [5]: 305 pM
SMILES: CC[C@H](C)[C@H](NC(=O)[C@H](C)NC(=O)CNC(=O)[C@H](Cc1ccccc1)NC(=O)[C@H](CC(N)=O)NC(=O)[C@@H]1CCCN1C(=O)[C@H](CO)NC(=O)[C@H](CO)NC(=O)[C@H](Cc1c[nH]cn1)NC(=O)[C@H](CCCNC(=N)N)NC(=O)[C@H](CC(C)C)NC(=O)[C@H](Cc1ccccc1)NC(=O)[C@H](CCC(=O)O)NC(=O)[C@H](C)NC(=O)[C@H](CC(C)C)NC(=O)[C@H](CCCNC(=N)N)NC(=O)[C@H](CCC(N)=O)NC(=O)[C@@H](NC(=O)[C@H](C)NC(=O)[C@@H]1CSSC[C@H](NC(=O)[C@@H](N)CCCCNC(=O)CC[C@H](NC(=O)CC[C@H](NC(=O)CCCCCCCCCCCCCCCCCCC(=O)O)C(=O)O)C(=O)O)C(=O)N[C@@H](CC(N)=O)C(=O)N[C@@H]([C@@H](C)O)C(=O)N[C@@H](C)C(=O)N[C@@H]([C@@H](C)O)C(=O)N1)[C@@H](C)O)C(=O)N1CCC[C@H]1C(=O)N[C@@H](CO)C(=O)N[C@@H](CO)C(=O)N[C@H](C(=O)N[C@@H](CC(N)=O)C(=O)N[C@H](C(=O)NCC(=O)N[C@@H](CO)C(=O)N[C@@H](CC(N)=O)C(=O)N[C@H](C(=O)N1CCC[C@H]1C(N)=O)[C@@H](C)O)C(C)C)[C@@H](C)O [Example 13] (H-K([γGlu-γGlu-C20 diacid])CNTATCATQRLAEFLRHSSPNFGAIPSSTNVGSNTP-NH2; disulfide 2-7; N-terminus assumed)
